Measured values taken from ChEMBL document CHEMBL5360549, “Recent advances in the development of methyltransferase (MTase) inhibitors against (re)emerging arboviruses diseases dengue and Zika” (Eur J Med Chem, 2023).
Blank lines part the entries; values can stand above or below the molecule they belong to.

Columns and labels:
[1] = Inhibition of Dengue virus 3 guanine-N7 methyltransferase assessed as inhibition constant; set-up: species or system dengue virus type 3
[2] = Inhibition of Dengue virus 3 nucleoside-2'O-methyltransferase assessed as inhibition constant; set-up: species or system dengue virus type 3
[3] = test system: Zika virus; experiment: Antiviral activity against Zika virus infected in African green monkey Vero cells assessed as reduction in viral plaques by plaque reduction assay; type: functional, organism-based
[4] = Inhibition of Zika virus NS5-methyltransferase using GpppAC4 and [3H]AdoMet as substrate incubated for 30 mins by liquid scintillation counter analysis
[5] = test system: Zika virus; experiment: Inhibition of Zika virus NS5-methyltransferase at 50 uM using GpppAC4 and [3H]AdoMet as substrate incubated for 30 mins by liquid scintillation counter analysis relative to control
[6] = Inhibition of Dengue virus NS5-methyltransferase using GpppAC4 and [3H]AdoMet as substrate incubated for 30 mins by liquid scintillation counter analysis
[7] = biological target: T1, mRNA cap guanine-N(7) methyltransferase (Homo sapiens, UniProt O43148); experiment: Inhibition of human RNMT using GpppAC4 and [3H]AdoMet as substrate incubated for 30 mins by liquid scintillation counter analysis
T1 sequence (O43148 whole entry): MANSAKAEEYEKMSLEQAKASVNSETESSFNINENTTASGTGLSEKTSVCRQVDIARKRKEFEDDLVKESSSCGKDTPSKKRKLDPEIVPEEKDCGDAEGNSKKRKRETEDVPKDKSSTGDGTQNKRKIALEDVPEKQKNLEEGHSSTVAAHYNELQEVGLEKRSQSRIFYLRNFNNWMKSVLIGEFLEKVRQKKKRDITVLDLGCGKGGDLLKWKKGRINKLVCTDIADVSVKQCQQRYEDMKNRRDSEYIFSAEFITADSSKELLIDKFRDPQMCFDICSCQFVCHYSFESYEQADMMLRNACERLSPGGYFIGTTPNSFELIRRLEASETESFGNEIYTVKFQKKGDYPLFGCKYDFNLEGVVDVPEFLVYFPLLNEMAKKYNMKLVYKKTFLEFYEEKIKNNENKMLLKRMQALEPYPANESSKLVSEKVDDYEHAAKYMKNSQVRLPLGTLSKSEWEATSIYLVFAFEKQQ

[8] = Binding affinity to Zika virus NS5-methyltransferase assessed as dissociation constant by isothermal titration microcalorimetry method
[9] = test system: Zika virus; experiment: Antiviral activity against Zika virus; type: functional, organism-based
[10] = test system: dengue virus type 2; experiment: Inhibition of Dengue virus 2 NS5-methyltransferase at 50 uM by HTRF assay relative to control
[11] = biological target: T1, mRNA cap guanine-N(7) methyltransferase; experiment: Inhibition of human RNMT at 50 uM using polyU as substrate incubated for 10 mins in presence of [3H] ATP and ATP by liquid scintillation counter analysis relative to control
[12] = test system: dengue virus type 1; experiment: Antiviral activity against Dengue virus 1 infected in asian tiger mosquito C6/36 cells assessed as reduction in virus replication by methyleneblue staining based analysis; type: functional, organism-based
[13] = test system: dengue virus type 2; experiment: Antiviral activity against Dengue virus 2 infected in asian tiger mosquito C6/36 cells assessed as reduction in virus replication by methyleneblue staining based analysis; type: functional, organism-based
[14] = test system: dengue virus type 4; experiment: Antiviral activity against Dengue virus 4 infected in asian tiger mosquito C6/36 cells assessed as reduction in virus replication by methyleneblue staining based analysis; type: functional, organism-based
[15] = Cytotoxicity against hamster BHK-21 cells assessed as reduction in cell growth measured after 24 hrs by MTT assay; type: toxicity, cell-based, Mesocricetus auratus
[16] = Cytotoxicity against human A549 cells assessed as reduction in cell growth measured after 24 hrs by MTT assay; type: toxicity, cell-based
[17] = Cytotoxicity against human Huh-7 cells assessed as reduction in cell growth measured after 24 hrs by MTT assay; type: toxicity, cell-based
[18] = Cytotoxicity against HEK293T cells assessed as reduction in cell growth measured after 24 hrs by MTT assay; type: toxicity, cell-based, HEK-293T; details: human
[19] = biological target: T1, mRNA cap guanine-N(7) methyltransferase; experiment: Inhibition of human RNMT assessed as inhibition constant

SMILES: N[C@H](CCSC[C@H]1O[C@@H](n2cnc3c(NCc4cccc(I)c4)ncnc32)[C@H](O)[C@@H]1O)C(=O)O
Ki [1]: 770 nM
Ki [2]: 150 nM

EC50 [3]: 17500 nM
SMILES: Cc1ccc2c(c1)c(=O)c(C(=O)c1ccccc1)cn2CC(=O)Nc1ccccc1C

SMILES: N[C@H](CCSC[C@H]1O[C@@H](n2cnc3c(NCc4cccc(Cl)c4)ncnc32)[C@H](O)[C@@H]1O)C(=O)O
Ki [1]: 820 nM
Ki [2]: 170 nM

EC50 [3]: 12500 nM
SMILES: COCCCNC(=O)c1ccc(Cn2c(=O)c3ccccc3n(CC(=O)NCCc3ccc(OC)c(OC)c3)c2=O)cc1

SMILES: N[C@H](CCSC[C@H]1O[C@@H](n2cnc3c(NCCc4ccccc4)ncnc32)[C@H](O)[C@@H]1O)C(=O)O
Ki [1]: 770 nM
Ki [2]: 150 nM

inhibition [5]: 30%
SMILES: O=C(Nc1ccc(I)cc1)Nc1ccc2c(c1)c1ccccc1n2Cc1ccccc1
IC50 [4]: 23000 nM

EC50 [3]: 17600 nM
SMILES: Cc1ccnc(NS(=O)(=O)c2ccc(NC(=O)c3ccc(S(=O)(=O)N4CCc5ccccc5C4)cc3)cc2)n1

SMILES: Cc1cccc(CNc2ncnc3c2ncn3[C@@H]2O[C@H](CSCC[C@@H](N)C(=O)O)[C@@H](O)[C@H]2O)c1
Ki [1]: 770 nM
Ki [2]: 150 nM

SMILES: Nc1ncnc2c1ncn2[C@@H]1O[C@H](C[C@@H](N)CC[C@H](N)C(=O)O)[C@@H](O)[C@H]1O [SINEFUNGIN]
IC50 [6]: 1180 nM
IC50 [7]: 5300 nM

SMILES: Cc1ccc(CNc2ncnc3c2ncn3[C@@H]2O[C@H](CSCC[C@@H](N)C(=O)O)[C@@H](O)[C@H]2O)cc1
Ki [1]: 770 nM
Ki [2]: 150 nM

SMILES: Cc1ccccc1CNc1ncnc2c1ncn2[C@@H]1O[C@H](CSCC[C@@H](N)C(=O)O)[C@@H](O)[C@H]1O
Ki [1]: 770 nM
Ki [2]: 150 nM

SMILES: N[C@H](CCSC[C@H]1O[C@@H](n2cnc3c(NCc4ccccc4)ncnc32)[C@H](O)[C@@H]1O)C(=O)O
Ki [1]: 770 nM
Ki [2]: 150 nM

SMILES: C[S+](CC[C@H](N)C(=O)[O-])C[C@H]1O[C@@H](n2cnc3c(N)ncnc32)[C@H](O)[C@@H]1O (stereo partly specified) [ADEMETIONINE]
Kd [8]: 2580 nM

SMILES: N[C@H](CCSC[C@H]1O[C@@H](n2cnc3c(NCc4cccc(F)c4)ncnc32)[C@H](O)[C@@H]1O)C(=O)O
Ki [1]: 770 nM
Ki [2]: 150 nM

EC50 [9]: > 3990 nM
inhibition [5]: 30%
SMILES: CCn1c2ccccc2c2cc(NC(=O)Nc3ccc([N+](=O)[O-])cc3C)ccc21
IC50 [6]: 38000 nM
IC50 [4]: 35000 nM

SMILES: N[C@H](CCSC[C@H]1O[C@@H](n2cnc3c(Nc4ccccc4)ncnc32)[C@H](O)[C@@H]1O)C(=O)O
Ki [1]: 770 nM
Ki [2]: 150 nM

SMILES: Nc1ncnc2c1ncn2[C@@H]1O[C@H](CN(CCC(N)C(=O)O)Cc2ccc(F)cc2)[C@@H](O)[C@H]1O (stereo partly specified)
Kd [8]: 24300 nM

inhibition [10]: 98.6%
inhibition [11]: 96%
SMILES: CCCCCCCCCCCCCCCC[N+](C)(C)CCN(Cc1ccc(OC)cc1)c1ncccn1

inhibition [5]: 30%
SMILES: COc1ccc(NC(=O)Nc2ccc3c(c2)c2ccccc2n3Cc2ccccc2)c(OC)c1
IC50 [4]: 23000 nM

SMILES: CCC(/C(C)=C/c1cc(OC)c(OC)cc1OC)c1cc(OC)c(OC)cc1OC (stereo unspecified)
EC50 [12]: 4270 nM
EC50 [13]: 4500 nM
EC50 [14]: 4540 nM
CC50 at 24 h [15]: > 80000 nM
CC50 at 24 h [16]: > 80000 nM
CC50 at 24 h [17]: > 80000 nM
CC50 at 24 h [18]: > 80000 nM

SMILES: N[C@H](CCSC[C@H]1O[C@@H](n2cnc3c(NCc4cccc(Br)c4)ncnc32)[C@H](O)[C@@H]1O)C(=O)O
Ki [1]: 770 nM
Ki [2]: 150 nM

EC50 [3]: 4800 nM
SMILES: O=C1c2cccc3cccc(c23)C(=O)N1CCc1ccc(S(=O)(=O)N2CCN(c3ccccc3)CC2)cc1

SMILES: N[C@H](CCSC[C@H]1O[C@@H](n2cnc3c(NC4CC4)ncnc32)[C@H](O)[C@@H]1O)C(=O)O
Ki [1]: 770 nM
Ki [2]: 150 nM

inhibition [5]: 30%
SMILES: COc1ccc(NC(=O)Nc2ccc3c(c2)c2ccccc2n3CCc2ccccc2)c(OC)c1
IC50 [4]: 23000 nM

inhibition [10]: 97.8%
inhibition [11]: 98.6%
SMILES: Cc1cc(/C=C/c2ccc3cc(N(C)C)ccc3[n+]2C)c(C)n1-c1ccccc1

SMILES: CNc1ncnc2c1ncn2[C@@H]1O[C@H](CSCC[C@@H](N)C(=O)O)[C@@H](O)[C@H]1O
Ki [1]: 770 nM
Ki [2]: 150 nM

Ki [19]: > 50000 nM
SMILES: Nc1ncnc2c1ncn2[C@@H]1O[C@H](CSCC[C@H](N)C(=O)O)[C@@H](O)[C@H]1O [S-ADENOSYLHOMOCYSTEINE]
Ki [1]: 3190 nM
Ki [2]: 570 nM
